Data from publication PMC6691816, “Discovery of aminopyridine-containing spiro derivatives as EGFR mutations inhibitors” (Journal of Enzyme Inhibition and Medicinal Chemistry, 2019).

Key:
Assay type in all cases: biochemical
EGF-R wt [1] = target: T1, EGF-R wt (Homo sapiens, UniProt P00533); test: EGFR-wt protein kinase assay (33PanQinase), single concentration; settings: 0.5 μM (5 × 10^−7 M), singlicate, % of control activity; read-out: Residual activity under 0.5 μM drug concentration (%) EGF-R wt
T1 construct: purchased ProQinase GmbH
T1 sequence (P00533 25-1210): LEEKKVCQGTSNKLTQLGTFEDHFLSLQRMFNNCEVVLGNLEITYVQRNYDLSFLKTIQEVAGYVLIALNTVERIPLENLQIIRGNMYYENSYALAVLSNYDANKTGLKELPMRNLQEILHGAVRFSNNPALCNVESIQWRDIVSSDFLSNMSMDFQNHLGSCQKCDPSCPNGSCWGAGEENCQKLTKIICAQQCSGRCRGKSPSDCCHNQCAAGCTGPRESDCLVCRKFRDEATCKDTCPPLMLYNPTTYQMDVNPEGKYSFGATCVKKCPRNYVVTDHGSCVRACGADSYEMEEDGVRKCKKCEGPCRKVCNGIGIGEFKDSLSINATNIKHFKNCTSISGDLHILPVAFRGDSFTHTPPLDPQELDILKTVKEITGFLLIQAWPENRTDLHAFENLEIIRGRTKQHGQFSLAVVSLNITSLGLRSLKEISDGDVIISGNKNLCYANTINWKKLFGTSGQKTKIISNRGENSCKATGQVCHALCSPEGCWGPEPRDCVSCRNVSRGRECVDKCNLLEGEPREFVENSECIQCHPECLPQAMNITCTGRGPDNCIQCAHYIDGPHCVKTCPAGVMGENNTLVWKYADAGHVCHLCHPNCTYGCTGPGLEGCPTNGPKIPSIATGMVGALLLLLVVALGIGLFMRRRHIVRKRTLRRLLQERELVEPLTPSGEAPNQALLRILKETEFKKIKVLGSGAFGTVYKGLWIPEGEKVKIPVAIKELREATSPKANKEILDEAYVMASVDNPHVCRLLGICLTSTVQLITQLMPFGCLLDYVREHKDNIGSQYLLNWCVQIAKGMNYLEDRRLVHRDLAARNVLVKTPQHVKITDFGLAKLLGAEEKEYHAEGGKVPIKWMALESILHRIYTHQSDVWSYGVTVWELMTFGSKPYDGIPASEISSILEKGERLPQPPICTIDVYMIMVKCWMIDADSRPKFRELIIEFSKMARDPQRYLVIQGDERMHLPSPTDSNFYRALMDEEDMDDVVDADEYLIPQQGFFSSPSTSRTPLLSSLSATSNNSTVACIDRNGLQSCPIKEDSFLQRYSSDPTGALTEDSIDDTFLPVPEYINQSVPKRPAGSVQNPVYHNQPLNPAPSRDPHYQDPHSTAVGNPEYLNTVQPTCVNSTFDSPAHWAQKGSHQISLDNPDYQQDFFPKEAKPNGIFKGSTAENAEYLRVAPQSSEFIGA
Experimental: (§1) The inhibitory profile of 16 compounds was determined using two protein kinases. The compounds were tested at a concentration of 5 × 1 0^−7 M, in singlicate. The compounds were solved and diluted to 5 × 10^−5 M stock solutions in 100% DMSO according to the customer-filled CSF. 10 μL of each of the stock solutions were transferred into […] of a 96-well, Column 1 and 2 of the plate were filled with 10 μL100% DMSO. The plate is in the following referred to as “copy plate”. In the process, 90 μL H2O were added to each well of the copy plate. To minimize potential compound precipitation, the H2O was added to each well only a few minutes before the transfer of the compound solutions into the assay plates. The plate was shaken thoroughly, resulting in a “compound dilution plate” with a compound concentration of 5 × 10^−6 M/10% DMSO. This plate was used for the transfer of 5 μL compound solution into the assay plates. The final volume of the assay was 50 μL. All compounds were tested at 5 × 1 0^−7 M in singlicate. The final DMSO concentration in the reaction cocktails was 1% in all cases. The compound dilution plate was disposed.
(§2) A radiometric protein kinase assay (33PanQinase® Activity Assay) was used for measuring the kinase activity of the two protein kinases. All kinase assays were performed in 96-well FlashPlatesTM from PerkinElmer (Boston, MA, USA) in a 50 μL reaction volume. The reaction cocktail was pipetted in 4 steps in the following order: 20 μL of assay buffer, 5 μL of ATP solution (in H2O), 5 μL of test compound (in 10% DMSO), 20 μL enzyme/subtrate mix. The assay for both protein kinases contained 70 mM HEPES-NaOH pH 7.5, 3 mM MgCl2, 3 mM MnCl2, 3 μM Na-orthovanadate, 1.2 mM DTT, ATP. The assay for ERBB2 additionally contained 50 μg/mLPEG20000. The reaction cocktails were incubated at 30 °C for 60 min. The reaction was stopped with 50 μL of 2% (v/v) H3PO4, plates were aspirated and washed two times with 200 μL 0.9% (w/v) NaCl. Incorporation of 33Pi was determined with a microplate scintillation counter (Microbeta, Wallac). All assays were performed with a BeckmanCoulter/SAGIAN™Core System. The median value of the counts in column 1 (n = 8) of each assay plate was defined as “low control”. This value reflects unspecific binding of radioactivity to the plate in the absence of a protein kinase but in the presence of the substrate. The median value of the counts in column 2 of each assay plate (n = 8) was taken as the “high control”. As part of the data evaluation the low control value from a particular plate was subtracted from the high control value as well as from all 80 “compound values” of the corresponding plate. The residual activity (in %) for each well of a particular plate was calculated by using the following formula: Res. Activity (%) = 100 × [(cpm of compound – low control)/(high control − low control)]

HER2 [2] = target: T2, HER2 (Homo sapiens, UniProt P04626); test: HER2 protein kinase assay (33PanQinase), single concentration; settings: 0.5 μM (5 × 10^−7 M), singlicate, % of control activity; read-out: Residual activity under 0.5 μM drug concentration (%) HER2
T2 construct: purchased ProQinase GmbH
T2 sequence (P04626 23-1255): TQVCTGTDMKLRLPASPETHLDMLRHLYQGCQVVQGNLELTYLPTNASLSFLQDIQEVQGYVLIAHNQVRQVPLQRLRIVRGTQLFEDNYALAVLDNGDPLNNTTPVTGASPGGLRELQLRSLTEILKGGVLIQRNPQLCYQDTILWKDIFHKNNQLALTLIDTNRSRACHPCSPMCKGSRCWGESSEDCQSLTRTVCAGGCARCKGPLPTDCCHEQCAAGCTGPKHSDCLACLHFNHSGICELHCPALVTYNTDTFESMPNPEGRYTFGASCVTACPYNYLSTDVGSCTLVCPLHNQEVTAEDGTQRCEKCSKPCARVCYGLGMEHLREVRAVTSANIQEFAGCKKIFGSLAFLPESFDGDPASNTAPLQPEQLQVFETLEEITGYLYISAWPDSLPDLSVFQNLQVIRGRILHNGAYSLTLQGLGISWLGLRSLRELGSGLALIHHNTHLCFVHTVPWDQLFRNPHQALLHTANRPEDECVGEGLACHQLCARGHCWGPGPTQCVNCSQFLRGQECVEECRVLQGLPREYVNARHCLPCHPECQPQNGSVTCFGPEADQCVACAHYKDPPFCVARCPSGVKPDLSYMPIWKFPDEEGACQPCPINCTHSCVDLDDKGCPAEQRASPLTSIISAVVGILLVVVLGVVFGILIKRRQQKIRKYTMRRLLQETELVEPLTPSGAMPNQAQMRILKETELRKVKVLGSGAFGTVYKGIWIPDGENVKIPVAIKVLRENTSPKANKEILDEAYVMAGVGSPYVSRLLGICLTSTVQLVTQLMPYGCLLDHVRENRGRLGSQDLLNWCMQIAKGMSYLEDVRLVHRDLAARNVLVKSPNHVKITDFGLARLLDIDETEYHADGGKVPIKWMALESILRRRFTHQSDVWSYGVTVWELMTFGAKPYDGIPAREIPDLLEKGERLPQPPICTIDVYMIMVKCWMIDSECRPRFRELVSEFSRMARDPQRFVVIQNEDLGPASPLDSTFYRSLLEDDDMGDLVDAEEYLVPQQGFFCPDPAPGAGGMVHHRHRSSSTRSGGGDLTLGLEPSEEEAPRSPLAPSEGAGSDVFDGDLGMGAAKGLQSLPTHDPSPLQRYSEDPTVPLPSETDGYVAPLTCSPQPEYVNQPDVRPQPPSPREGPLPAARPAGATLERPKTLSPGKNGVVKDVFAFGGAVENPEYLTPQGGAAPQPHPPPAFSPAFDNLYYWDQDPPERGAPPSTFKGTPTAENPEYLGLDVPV
Experimental: as §1, §2

EGF-R L861Q = EGF-R L861Q (Homo sapiens, UniProt P00533, L861Q); test: Radiometric protein kinase IC50 assay (33PanQinase)
Experimental: (§3) The compounds were serially diluted in semi-log steps with 100% DMSO in a 96 well microtiter plate. The concentration range of this serial dilution was 1 × 10^−3 M to 3 × 10^−8 M. Directly before use the test compounds were further diluted 1:10 with water, resulting in a concentration range from 1 × 10^−4 M to 3 × 1 0^−9 M in 10% DMSO. For the assays, 5 μL from each concentration were transferred into the assay. The final volume of the assay was 50 μL. The compounds were tested at 10 final assay concentrations in the range from 1 × 10^−5 M to 3 × 10^−10 M. The final DMSO concentration in the reaction cocktails was 1% in all cases.
(§4) A radiometric protein kinase assay (33PanQinase® Activity Assay) was used for measuring the kinase activity of the 9 protein kinases. All kinase assays were performed in 96-well FlashPlatesTM from Perkin Elmer (Boston, MA, USA) in a 50 μL reaction volume. The reaction cocktail was pipetted in 4 steps in the following order: 10 μL of non-radioactive ATP solution (in H2O), 25 μL of assay buffer/[γ-33P]-ATP mixture, 5 μL of test sample in 10% DMSO, 10 μL of enzyme/substrate mixture. The assay for all protein kinases contained 70 mM HEPES-NaOH pH 7.5, 3 mM MgCl2, 3 mM MnCl2, 3 μM Na-orthovanadate, 1.2 mM DTT, ATP, [γ-33P]-ATP, protein kinase, and substrate.The reaction cocktails were incubated at 30 °C for 60 min. The reaction was stopped with 50 μL of 2% (v/v) H3PO4, plates were aspirated and washed two times with 200 μL 0.9% (w/v) NaCl. Incorporation of 33Pi (counting of “cpm”) was determined with a microplate scintillation counter (Microbeta, Wallac). All assays were performed with a BeckmanCoulter Biomek 2000/SL robotic system.
(§5) For each kinase, the median value of the cpm of three wells with complete reaction cocktails, but without kinase, was defined as “low control” (n = 3). This value reflects unspecific binding of radioactivity to the plate in the absence of protein kinase but in the presence of the substrate. Additionally, for each kinase the median value of the cpm of three other wells with the complete reaction cocktail, but without any compound, was taken as the “high control”, i.e. full activity in the absence of any inhibitor (n = 3). The difference between high and low control was taken as 100% activity for each kinase. As part of the data evaluation the low control value of each kinase was subtracted from the high control value as well as from their corresponding “compound values”. The residual activity (in %) for each compound well was calculated by using the following formula: Res. Activity (%) = 100 × [(cpm of compound – low control)/(high control – low control)]
(§6) Based on each 10 corresponding residual activities, IC50 values were calculated using Prism 5.04 for Windows. The mathematical model used was “Sigmoidal response (variable slope)” with parameters “top” fixed at 100% and “bottom” at 0%. The fitting method used was a least-squares fit.

EGF-R d752-759 = EGF-R d752-759 (Homo sapiens, UniProt P00533, DEL752-759); test: as above
EGF-R d752-759, sequence (P00533 with tags, fused parts or gaps DEL752-759 limits assumed): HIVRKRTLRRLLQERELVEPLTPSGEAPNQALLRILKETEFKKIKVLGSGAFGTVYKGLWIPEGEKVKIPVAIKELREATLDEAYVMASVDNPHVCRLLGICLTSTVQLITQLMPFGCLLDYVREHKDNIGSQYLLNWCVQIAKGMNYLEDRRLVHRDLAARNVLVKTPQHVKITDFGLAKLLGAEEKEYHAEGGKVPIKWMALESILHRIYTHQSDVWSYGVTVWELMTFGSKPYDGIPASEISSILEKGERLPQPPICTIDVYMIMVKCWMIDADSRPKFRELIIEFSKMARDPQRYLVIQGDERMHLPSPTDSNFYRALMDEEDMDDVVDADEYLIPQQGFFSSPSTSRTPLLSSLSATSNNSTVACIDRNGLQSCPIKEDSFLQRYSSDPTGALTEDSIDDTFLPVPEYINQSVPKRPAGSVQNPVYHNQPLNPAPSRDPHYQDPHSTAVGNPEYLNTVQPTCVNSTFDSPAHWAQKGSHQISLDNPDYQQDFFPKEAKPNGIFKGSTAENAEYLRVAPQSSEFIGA
Experimental: as §3, §4, §5, §6

EGF-R wt [3] = target: T1, EGF-R wt; test: as above; settings: for biochemical activity on EGFR wt compared with neratinib: not more than that of neratinib
Experimental: as §3, §4, §5, §6

EGF-R T790M = EGF-R T790M (Homo sapiens, UniProt P00533, T790M); test: as above
Experimental: as §3, §4, §5, §6

EGF-R T790M/L858R = EGF-R T790M/L858R (Homo sapiens, UniProt P00533, L858R/T790M); test: as above; settings: for inhibitory activity on EGFR mutant containing both T790M and L858R, times stronger than neratinib: ratio of IC50 values to neratinib
EGF-R T790M/L858R, sequence (P00533 25-1210 T790M/L858R): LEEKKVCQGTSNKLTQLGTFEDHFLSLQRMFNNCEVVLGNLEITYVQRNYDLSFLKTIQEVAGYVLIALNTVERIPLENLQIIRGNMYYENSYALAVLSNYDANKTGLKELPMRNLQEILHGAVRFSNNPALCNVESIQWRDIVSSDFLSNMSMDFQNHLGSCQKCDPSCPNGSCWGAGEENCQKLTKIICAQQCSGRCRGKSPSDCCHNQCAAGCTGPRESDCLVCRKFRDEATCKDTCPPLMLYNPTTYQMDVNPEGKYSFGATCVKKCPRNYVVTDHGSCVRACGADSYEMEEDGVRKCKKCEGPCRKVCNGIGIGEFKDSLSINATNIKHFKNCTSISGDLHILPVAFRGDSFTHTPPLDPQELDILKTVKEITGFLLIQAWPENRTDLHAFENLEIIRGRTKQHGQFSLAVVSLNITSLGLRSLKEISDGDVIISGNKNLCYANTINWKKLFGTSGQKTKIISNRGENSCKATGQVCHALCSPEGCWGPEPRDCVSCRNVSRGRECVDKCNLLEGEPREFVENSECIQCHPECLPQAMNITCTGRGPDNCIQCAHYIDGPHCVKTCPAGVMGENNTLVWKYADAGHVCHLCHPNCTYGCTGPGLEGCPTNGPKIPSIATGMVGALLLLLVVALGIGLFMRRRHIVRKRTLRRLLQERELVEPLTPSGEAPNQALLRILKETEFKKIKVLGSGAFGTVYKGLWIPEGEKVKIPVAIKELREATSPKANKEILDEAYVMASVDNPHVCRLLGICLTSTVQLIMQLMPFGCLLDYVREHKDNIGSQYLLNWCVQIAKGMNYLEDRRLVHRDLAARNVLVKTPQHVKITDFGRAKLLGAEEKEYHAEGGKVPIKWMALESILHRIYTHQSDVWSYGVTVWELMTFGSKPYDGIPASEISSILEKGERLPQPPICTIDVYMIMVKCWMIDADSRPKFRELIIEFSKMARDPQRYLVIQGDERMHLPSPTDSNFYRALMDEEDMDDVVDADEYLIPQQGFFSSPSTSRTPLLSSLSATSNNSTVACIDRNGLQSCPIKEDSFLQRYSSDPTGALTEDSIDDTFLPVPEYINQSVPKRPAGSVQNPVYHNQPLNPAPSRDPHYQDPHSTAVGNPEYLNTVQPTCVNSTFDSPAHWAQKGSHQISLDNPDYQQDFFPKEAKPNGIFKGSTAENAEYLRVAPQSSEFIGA
Experimental: as §3, §4, §5, §6

EGF-R L858R = EGF-R L858R (Homo sapiens, UniProt P00533, L858R); test: as above
Experimental: as §3, §4, §5, §6

EGF-R d747-749/A750P = EGF-R d747-749/A750P (Homo sapiens, UniProt P00533, A750P/DEL747-749); test: as above
EGF-R d747-749/A750P, sequence (P00533 with tags, fused parts or gaps DEL747-749/A750P limits assumed): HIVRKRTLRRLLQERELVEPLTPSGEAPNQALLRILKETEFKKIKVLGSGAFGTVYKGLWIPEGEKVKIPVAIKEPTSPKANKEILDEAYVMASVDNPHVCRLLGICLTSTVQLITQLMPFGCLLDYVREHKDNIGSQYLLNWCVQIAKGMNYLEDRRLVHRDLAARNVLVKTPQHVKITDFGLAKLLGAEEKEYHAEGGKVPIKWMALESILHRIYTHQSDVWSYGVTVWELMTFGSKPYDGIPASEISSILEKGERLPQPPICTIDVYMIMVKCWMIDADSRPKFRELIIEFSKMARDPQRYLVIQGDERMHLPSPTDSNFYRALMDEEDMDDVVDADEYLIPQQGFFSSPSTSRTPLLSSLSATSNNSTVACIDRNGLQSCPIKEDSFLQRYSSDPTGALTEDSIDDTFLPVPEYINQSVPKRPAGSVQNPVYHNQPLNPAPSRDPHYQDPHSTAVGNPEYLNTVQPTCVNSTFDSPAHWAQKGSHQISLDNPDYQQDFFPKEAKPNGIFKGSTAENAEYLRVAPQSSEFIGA
Experimental: as §3, §4, §5, §6

HER2 [4] = target: T2, HER2; test: as above
Experimental: as §3, §4, §5, §6

EGF-R G719S = EGF-R G719S (Homo sapiens, UniProt P00533, G719S); test: as above
Experimental: as §3, §4, §5, §6

| SMILES | remaining activity at 0.5 µM (EGF-R wt [1]) [%] | remaining activity at 0.5 µM (HER2 [2]) [%] | IC50 (EGF-R L861Q) [nM] | IC50 (EGF-R d752-759) [nM] | IC50 (EGF-R wt [3]) [nM] | biochemical activity on EGFR wt compared with neratinib (EGF-R wt [3]) | IC50 (EGF-R T790M) [nM] | IC50 (EGF-R T790M/L858R) [nM] | inhibitory activity on EGFR mutant containing both T790M and L858R, times stronger than neratinib (EGF-R T790M/L858R) [times] | IC50 (EGF-R L858R) [nM] | IC50 (EGF-R d747-749/A750P) [nM] | IC50 (HER2 [4]) [nM] | IC50 (EGF-R G719S) [nM] |
| --- | --- | --- | --- | --- | --- | --- | --- | --- | --- | --- | --- | --- | --- |
| C=CC(=O)N1CC2(CCN(C)CC2)c2cc(OC)c(Nc3ncc(C#N)c(Nc4ccc(OCc5ccccn5)cc4)n3)cc21 [Compound A1, 2-{[5-methoxy-1′-methyl-1-(prop-2-enoyl)-1,2-dihydrospiro[indole-3,4′ -piperidine]-6-yl]amino}-4-{[4-(pyridin-2-ylmethoxy)phenyl]amino}pyrimidine-5-carbonitrile] | 7 | 9 | 76 | 210 | 61 | within five times | 89 | 90 | 31 | 86 | 53 | 260 | 200 |
| C=CC(=O)N1CC2(CCN(C)CC2)c2cc(OC)c(Nc3ncc(C#N)c(Nc4ccc(OCc5ccccn5)c(Cl)c4)n3)cc21 [Compound A2, 4-{[3-chloro-4-(pyridin-2-ylmethoxy)phenyl]amino}-2-{[5-methoxy-1′-methyl-1-(prop-2-enoyl)-1,2-dihydrospiro[indole-3,4′-piperidine]-6-yl]amino}pyrimidine-5-carbonitrile] | 6 | 5 | 81 | 200 | 59 | within five times | 130 | 80 | 31 | 81 | 54 | 310 | 240 |
